Experimental data: patent US9035059B2, “Nitrogen-containing condensed heterocyclic compound” (TAISHO PHARMACEUTICAL CO., LTD., priority 2011, dated 2015)

molecular target: MGAT2 (microsomal fraction of human small intestine) (Homo sapiens (Human), UniProt Q3SYC2); assay: Test Example 2: Test of MGAT2 inhibitory action (microsomal fraction of human small intestine, 3H-labeled 2-monooleoyl glycerol); format: biochemical; settings: microsomal fraction of human small intestine 5 μg/ml; 4 μM oleoyl-CoA, 1.25 μM 2-monooleoyl glycerol, 0.125 μM 3H-labeled 2-monooleoyl glycerol; room temperature 30 min; read-out: Activity Value [nM] (IC50, concentration at which 50% of the products 3H-labeled dioleoyl glycerol and trioleoyl glycerol was inhibited)
Procedure: An MGAT2 inhibition test for test compounds was conducted in accordance with a partially modified version of the method described in John F. Lockwood et al., Am. J. Physiol. Endocrinol. Metab., 2003, 285, E927.
A 10 mg/mL microsomal fraction of human small intestine (duodenum- and jejunum-derived fraction purchased from Becton Dickinson Japan) was used as an enzyme source.
The test was conducted using a flat-bottom 96-well plate (Corning).
A buffer solution with final concentrations of 5 mM magnesium chloride, 1.25 mg/ml bovine serum albumin and 100 mM Tris-HCl (pH=7.5) was prepared and the microsomal fraction of human small intestine was added thereto to give a final concentration of 5 μg/ml. […] Thereafter, final concentrations of 5 mM magnesium chloride, 1.25 mg/ml bovine serum albumin, 100 mM Tris-HCl (pH=7.5), 4 μM oleoyl-CoA, 1.25 μM 2-monooleoyl glycerol and 0.125 μM ^3H-labeled 2-monooleoyl glycerol (Muromachi Yakuhin Co., Ltd.) were added thereto to give a total volume of 100 μl. This mixture was reacted at room temperature for 30 min.
The reaction was stopped by adding an equal amount of isopropanol to the reaction mixture. The substrate contained in the reaction mixture (^3H-labeled 2-monooleoyl glycerol) and the reaction products (^3H-labeled dioleoyl glycerol and trioleoyl glycerol) were separated by adsorbing them onto an octadecylsilane resin (Wako gel 50C18) (Wako Pure Chemical Industries, Ltd.), removing the substrate by use of 80% isopropanol, and then eluting the reaction products with 100% isopropanol. The amounts of the reaction products were measured with MicroBeta (PerkinElmer Japan).

MGAT2 (microsomal fraction of human small intestine), sequence (Q3SYC2 whole entry): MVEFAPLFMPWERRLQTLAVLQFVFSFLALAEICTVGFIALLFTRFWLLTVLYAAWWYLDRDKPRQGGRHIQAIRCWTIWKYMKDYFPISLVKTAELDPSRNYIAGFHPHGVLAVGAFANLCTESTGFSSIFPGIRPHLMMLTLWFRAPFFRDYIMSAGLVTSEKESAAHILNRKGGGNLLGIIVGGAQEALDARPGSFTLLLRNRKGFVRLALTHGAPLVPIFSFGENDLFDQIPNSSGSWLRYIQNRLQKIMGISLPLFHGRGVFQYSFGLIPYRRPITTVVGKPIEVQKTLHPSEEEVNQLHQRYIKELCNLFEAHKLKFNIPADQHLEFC

Structure (SMILES)	IC50 [nM]
CC(c1ccc(C(F)(F)F)nc1)N1CCc2cc(S(=O)(=O)Nc3ccc(CCCC4CCCC4)cc3F)ccc2C1 (single isomer, unassigned) [24-4]	185
O=S(=O)(Nc1ccc(CCCC2CCCC2)cc1F)c1ccc2c(c1)CCN(Cc1ccc(OCC(F)(F)F)nc1)C2 [Working Example 6-84]	248
O=S(=O)(Nc1ccc(CCCC2CCCC2)cc1F)c1ccc2c(c1)CCN(Cc1cnn(C3CCC3)c1)C2 [Working Example 2-9]	142
CC(C)(C)c1ccc(C2(N3CCc4cc(S(=O)(=O)Nc5ccc(CCCC6CCCC6)cc5F)ccc4C3)CC2)cn1 [25-2]	60
CC(c1ccnc(C(C)(C)C)c1)N1CCc2cc(S(=O)(=O)Nc3ccc(CCCC4CCCC4)cc3F)ccc2C1 (stereo not drawn) [23-3]	13
CC(C)(C)n1cc(CCN2CCc3cc(S(=O)(=O)Nc4ccc(CCCC5CCCC5)cc4F)ccc3C2)cn1 [Working Example 7-91]	140
CC(c1cnc(C(F)(F)F)nc1)N1CCc2cc(S(=O)(=O)Nc3ccc(CCCC4CCCC4)cc3F)ccc2C1 (single isomer, unassigned) [24-9]	131
CC(C)n1cc(CN2CCc3cc(S(=O)(=O)Nc4ccc(CCCC5CCCC5)cc4F)ccc3C2)cn1 [Working Example 2-5]	180
CC(C)(C)c1cc(CN2CCc3cc(S(=O)(=O)Nc4ccc(CCCC5CCCC5)cc4F)ccc3C2)ccn1 [Working Example 6-85]	71
CC(C)(C)n1cc(CN2CCc3cc(S(=O)(=O)Nc4ccc(CCCC5CCCC5)cc4F)ccc3C2)cn1 [Working Example 2-4]	92
CC(c1ccc(OCC(F)(F)F)nc1)N1CCc2cc(S(=O)(=O)Nc3ccc(CCCC4CCCC4)cc3F)ccc2C1 (stereo not drawn) [23-6]	115
CCCn1cc(CN2CCc3cc(S(=O)(=O)Nc4ccc(CCCC5CCCC5)cc4F)ccc3C2)cn1 [Working Example 2-8]	213
CC(C)(C)c1ccc(CC2(N3CCc4cc(S(=O)(=O)Nc5ccc(CCCC6CCCC6)cc5F)ccc4C3)CC2)cc1 [25-1, 2-[1-(4-tert-Butylbenzyl)cyclopropyl]-N-[4-(3-cyclopentylpropyl)-2-fluorophenyl]-1,2,3,4-tetrahydroisoquinoline-6-sulfonamide]	200
CC(c1cnc(C(C)(C)C)nc1)N1CCc2cc(S(=O)(=O)Nc3ccc(CCCC4CCCC4)cc3F)ccc2C1 (single isomer, unassigned) [24-8]	34
C[C@@H](c1ccc(C(C)(C)C)nc1)N1CCc2cc(S(=O)(=O)Nc3ccc(CCCC4CCCC4)cc3F)ccc2C1 [24-2, 2-[(1S)-1-(6-tert-butylpyridin-3-yl)ethyl]-N-[4-(3-cyclopentylpropyl)-2-fluorophenyl]-1,2,3,4-tetrahydroisoquinoline-6-sulfonamide]	29
CC(C)(C)c1ccc(CCN2CCc3cc(S(=O)(=O)Nc4ccc(OCCOCC5CCCO5)cc4F)ccc3C2)cc1 (stereo not drawn) [Working Example 8-9]	160
CC(C)(C)c1ccc(CCN2CCc3cc(S(=O)(=O)Nc4ccc(OCC[C@H]5CCOC[C@H]5F)cc4F)ccc3C2)cc1 [Working Example 8-11]	169
CC(C)(C)c1ncc(CCN2CCc3cc(S(=O)(=O)Nc4ccc(CCCC5CCCC5)cc4F)ccc3C2)s1 [Working Example 6-88]	248
